In patent US20230065640A1, “COMBINATION THERAPIES AND BIOMARKERS FOR TREATING B-CELL LYMPHOMAS” (priority 2020, published 2023):

What was measured:
[1] = system: DLBCL with a MYCC rearrangement and BCL2 expression (MYCC/BCL2 associated lymphoma); assay: CDX mouse model of DLBCL with a MYCC rearrangement and BCL2 expression; assay type: in vivo, BALB/C-nu mice; settings: FIG. 8; alone and in combination with BCL2 inhibitor (ABT199)
Description: (§1) Tumor Xenograft models (CDX models). BALB/C-nu mice (6-8 weeks, SPF Biotechnology Co., Ltd) were inoculated by s.c. injection of tumor cell (SU-DHL-10, SU-DHL-4 or OCI-LY-7) suspension containing Matrigel (Corning)/PBS at a ratio of 1:1. 1×10^7 cells were inoculated. When tumors reached 150-200 mm^3, treatment was initiated. Tumor growth was monitored twice a week. Tumor volume was calculated by applying the following equation: tumor volume=½(length×width^2).

[2] = system: SU-DHL-4 (double hit (MYCC/BCL2), CD20 positive); assay: SU-DHL-4 CDX model; assay type: in vivo, BALB/C-nu mice; settings: FIG. 10; b/c-nu; PC-002 5 mg/kg i.p., alone and in combination with CHOP or RCHOP
Description: CHOP: cyclophosphamide, 40 mg/kg, QW*3, D1, i.v., doxorubicin, 3.3 mg/kg, QW*3, D1, i.v., vincristine, 0.5 mg/kg, QW*3, D1, i.v., prednisone, 0.2 mg/kg, QD*5*3W,D1-5, p.o. RCHOP: rituximab, 25 mg/kg, QW*3, i.p., cyclophosphamide, 40 mg/kg, QW*3, D1, i.v., doxorubicin, 3.3 mg/kg, QW*3, D1, i.v., vincristine, 0.5 mg/kg, QW*3, D1, i.v., prednisone, 0.2 mg/kg, QD*5*3W,D1-5, p.o. PC-002: 5 mg/kg, QD*5*3w, D1-5, i.p.

c-MYC = assay: Western blot of c-MYC in DLBCL cells; assay type: cell-based, Human; settings: DLBCL cells with a MYCC rearrangement; treated 24 hours; FIG. 5B
Description: (§2) Cell Culture. Human diffuse large B-cell lymphoma cells, SU-DHL-10, SU-DHL-4, OCI-LY-7 and SU-DHL-2 cells (purchased from Cell Bank, Shanghai Institutes for Biological Sciences, Chinese Academy of Sciences) were cultured in RPMI 1640 (Hyclone™, SH30809.01B) supplemented with 10% fetal bovine serum (GEMINI, 900-108). Cultures were incubated at 37° C., in 5% CO2.
Western blot. SU-DHL-10, OCI-LY-7 and SU-DHL-2 cells were treated with/without YM155 for 24 hours. Cell lysates were prepared in lysis buffer (Thermo Fisher). Protein concentrations were determined using a Bio-Rad protein assay (Bio-Rad). 20 μg protein was loaded in 4%-12% SDS-PAGE (Invitrogen), and transferred to nitrocellulose. Membranes were blocked in 5% BSA (Sigma) for 1 hour, incubated with the primary antibody overnight at 4° C., washed and incubated with the appropriate horseradish-conjugated secondary antibody (1:5000, Cell Signaling Technology) for 1 hour at room temperature. An enhanced chemiluminescent kit (Beyotime Biotechnology) was used to visualize the signal. The following antibodies were used: c-MYC (Abcam) and GAPDH (Beyotime Biotechnology).

[3] = system: prostate, pancreatic, and lung cancer; settings: cited from earlier work
[4] = system: DLBCL with a MYCC rearrangement; assay: CDX mouse model of DLBCL with a MYCC rearrangement; assay type: in vivo, BALB/C-nu mice
Description: as §1

survivin = settings: Minematsu et al. 2008; cited from earlier work
[5] = system: SU-DHL-10, OCI-LY-7 and SU-DHL-2 cells; assay: Cell proliferation XTT assay in DLBCL cells with or without MYCC rearrangement; assay type: cell-based, Human; settings: DLBCL with a MYCC rearrangement versus without, 72 h incubation, FIG. 4
Description: as §2
Cell Treatment and proliferation assay. SU-DHL-10, OCI-LY-7 and SU-DHL-2 cell were seeded in 96-well plates (Corning-Costar, 3599) at 40000 cells/well in 200 μl culture medium treated with YM155 (50, 25, 12.5, 2.5, 1, 0.5 nM; Apex BIO, A4221) or DMSO (0.1%; Amresco, 67-68-5). After 72 h incubation, cell proliferation was measured by XTT assay (Cell Proliferation Kit II XTT, sigma, 11465015001) according to manufacturer's protocols. Briefly, after YM155 treatment, added to each well 50 μl of the XTT labeling mixture, then incubated the micro-plate for 4 h in a humidified atmosphere. The absorbance of wavelength was determined at 490 nm (OD490) and 650 nm (OD650) respectively by SpectraMax 190. The IC50 was calculated by the value of OD490. OD650.

[6] = system: DLBCL cells with a MYCC rearrangement; assay: Apoptosis assay (Annexin V/PI staining); assay type: cell-based, Human; settings: 24 hours post-treatment, FIG. 5A
Description: as §2
Apoptosis Assay. Apoptosis was detected by Annexin V/PI staining kit (Thermo Fisher) according to the manufacturer's instructions. Briefly, cells were plated at a density of 5×10^5 cells/mL in RPMI 1640 media with 2% FBS with desired concentrations of YM155. At 24 hours post-treatment the cells were harvested and tested for apoptosis by Annexin V and PI staining. Cell analysis was performed using a FACSAria (BD).

[7] = FIG. 6, alone and in combination with PARP inhibitor (olaparib)

Compound | effect on tumor growth [1] | effect on tumor volume [2] | MYCC expression (c-MYC) | antitumor activity ([3]; Minematsu et al. 2008) | anti-tumor effects in various in vivo cancer models ([3]; prostate, pancreatic, and lung cancer, Nakahara et al. 2007, Na et al. 2012) | effect on tumor growth [4, 7] | effect on tumor growth ([4]; FIG. 7, alone and in combination with CHOP) | effect on tumor volume ([4]; FIG. 9, b/c-nu, PC-002 5 mg/kg i.p., alone and in combination with CHOP) | survivin expression (survivin) | sensitivity of DLBCL to YM155 (cell proliferation) [5] | apoptosis of DLBCL cells [6]
CC1(C)CCC(CN2CCN(c3ccc(C(=O)NS(=O)(=O)c4ccc(NCC5CCOCC5)c([N+](=O)[O-])c4)c(Oc4cnc5[nH]ccc5c4)c3)CC2)=C(c2ccc(Cl)cc2)C1 [ABT199] | no significant effect on tumor growth |  |  |  |  |  |  |  |  |  | 
1-(2-Methoxyethyl)-2-methyl-4,9-dioxo-3-(pyrazin-2-ylmethyl)-4,9-dihydro-1H-naphtho[2,3-d] imidazolium bromide [YM155] | complete tumor regression | profound effect on reducing tumor volume, essentially eliminating tumor growth | lowers the MYCC expression | potent antitumor activity | exerts anti-tumor effects | tumor regression | tumor regression | significant effect on reducing tumor volume | down-regulation of survivin | more sensitive | induces apoptosis
O=C(c1cc(Cc2n[nH]c(=O)c3ccccc23)ccc1F)N1CCN(C(=O)C2CC2)CC1 [olaparib] |  |  |  |  |  | no significant effect on tumor growth |  |  |  |  | 
